Experimental data published in US20260294927A1, “KIF18A INHIBITOR COMPOUND, AND PHARMACEUTICAL COMPOSITION AND PREPARATION METHOD THEREFOR AND USE THEREOF” (CHANGCHUN GENESCIENCE PHARMACEUTICAL CO., LTD., priority 2022, published 2026).

Tested on: OVCAR-3 cells
Assay: imaging-based nuclear count analysis (NCA) in OVCAR-3 cells
Format: cell-based
Details: Homo sapiens, 96 h, 4 days, nuclear count with Hoechst 33342, 0.1% DMSO, low control 10 μM AM-5308
Procedure: Test name: imaging-based nuclear count analysis (NCA) in OVCAR-3 cells
• a) The final test concentrations of AM-5308:10000, 3333.3, 1111.1, 370.3, 123.4, 41.1, 13.7, 4.5, 1.5, 0.5 nM. • b) The final test concentrations of the test compound: 10000, 3333.3, 1111.1, 370.3, 123.4, 41.1, 13.7, 4.5, 1.5, 0.5 nM. • c) The cells were cultured in a 37° C., 5% CO2 incubator for 4 days. • d) DMSO concentration was 0.1%. Day 1 Seeding the Cells into a 384-Well Cell Culture Plate • a) When the cell confluence reached 80%-90%, the cells were treated. • b) The cells were resuspended in a medium and then counted and diluted at a desired density. • c) A cell suspension containing appropriate cells was added to the 384-well plate at 30 μL/well: 600 cells/well. […]
High-reading control wells: cells+30 nL DMSO; low-reading control wells: 10 μM AM-5308.
IC50 (nM) was calculated using GraphPad Prism 8 software and the effect-dose curves of the compound were plotted.

IC50: 0.111 µM
Compound: O=C(Nc1cccc2c1nc1n2C2CCC1CC2)c1ccc(NS(=O)(=O)CCO)cc1N1CCC2(CC1)CC2 [Compound 100, 4-(2-hydroxyethanesulfonylamino)-2-(6-azaspiro[2.5]octan-6-yl)-N-(1,2,3,4-tetrahydro-1,4-ethylbenzo[4,5]imidazo[1,2-a]pyridin-6-yl)benzamide]
